Laboratory results reported in the kinase profiling compilation of Christmann-Franck et al. (2016).
Several values for one entry are separate records, joined by “and”; a condition that tells them apart may be missing. Equal entries are not always repeated.

What was measured:
Assay in all cases: radiometric filter-binding kinase assay, Kinase HotSpot
Conditions in all cases: compound 0.5 µM; ATP 10 µM
EPHA2 (human) = EPHA2 (human) (UniProt P29317)
LRRK2 (human) = LRRK2 (human) (UniProt Q5S007)
HCK (human) = HCK (human) (UniProt P08631)
RPS6KA6 KD1 KD2 (human) = RPS6KA6 KD1 KD2 (human) (UniProt Q9UK32)
LYN (human) = LYN (human) (UniProt P07948)
PRKG2 (human) = PRKG2 (human) (UniProt Q13237)
ADRBK1 (human) = ADRBK1 (human) (UniProt P25098)
PRKCG (human) = PRKCG (human) (UniProt P05129)
FRK (human) = FRK (human) (UniProt P42685)
PIM1 (human) = PIM1 (human) (UniProt P11309)
MAP4K2 (human) = MAP4K2 (human) (UniProt Q12851)
BTK (human) = BTK (human) (UniProt Q06187)
SRPK1 (human) = SRPK1 (human) (UniProt Q96SB4)
SRPK3 (human) = SRPK3 (human) (UniProt Q9UPE1)
IRAK4 (human) = IRAK4 (human) (UniProt Q9NWZ3)
IRAK4 (human), sequence (Q9NWZ3 whole entry, looked up): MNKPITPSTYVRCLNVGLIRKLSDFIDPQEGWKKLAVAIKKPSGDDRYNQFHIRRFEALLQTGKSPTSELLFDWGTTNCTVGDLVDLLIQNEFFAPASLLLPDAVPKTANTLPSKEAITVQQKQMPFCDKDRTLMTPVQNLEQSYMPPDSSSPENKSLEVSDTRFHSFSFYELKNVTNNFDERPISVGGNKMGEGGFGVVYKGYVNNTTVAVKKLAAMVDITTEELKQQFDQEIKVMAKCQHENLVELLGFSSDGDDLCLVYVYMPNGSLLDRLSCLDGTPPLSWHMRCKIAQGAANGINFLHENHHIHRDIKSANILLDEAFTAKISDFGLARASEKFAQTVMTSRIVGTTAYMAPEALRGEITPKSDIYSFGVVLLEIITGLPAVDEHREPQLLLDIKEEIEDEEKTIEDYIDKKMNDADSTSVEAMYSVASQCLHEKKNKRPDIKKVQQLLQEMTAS

MST4 (human) = MST4 (human) (UniProt Q9P289)
SRMS (human) = SRMS (human) (UniProt Q9H3Y6)
ULK3 (human) = ULK3 (human) (UniProt Q6PHR2)
CSNK1E (human) = CSNK1E (human) (UniProt P49674)
GSG2 (human) = GSG2 (human) (UniProt Q8TF76)
PAK4 (human) = PAK4 (human) (UniProt O96013)
EPHA4 (human) = EPHA4 (human) (UniProt P54764)
CDK6 CCND1 (human) = CDK6 CCND1 (human) (UniProt Q00534+P24385)
CAMKK2 (human) = CAMKK2 (human) (UniProt Q96RR4)
PRKCI (human) = PRKCI (human) (UniProt P41743)
TXK (human) = TXK (human) (UniProt P42681)
CDK9 CCNK (human) = CDK9 CCNK (human) (UniProt O75909+P50750)
CDK9 CCNK (human), sequence (O75909 whole entry, looked up): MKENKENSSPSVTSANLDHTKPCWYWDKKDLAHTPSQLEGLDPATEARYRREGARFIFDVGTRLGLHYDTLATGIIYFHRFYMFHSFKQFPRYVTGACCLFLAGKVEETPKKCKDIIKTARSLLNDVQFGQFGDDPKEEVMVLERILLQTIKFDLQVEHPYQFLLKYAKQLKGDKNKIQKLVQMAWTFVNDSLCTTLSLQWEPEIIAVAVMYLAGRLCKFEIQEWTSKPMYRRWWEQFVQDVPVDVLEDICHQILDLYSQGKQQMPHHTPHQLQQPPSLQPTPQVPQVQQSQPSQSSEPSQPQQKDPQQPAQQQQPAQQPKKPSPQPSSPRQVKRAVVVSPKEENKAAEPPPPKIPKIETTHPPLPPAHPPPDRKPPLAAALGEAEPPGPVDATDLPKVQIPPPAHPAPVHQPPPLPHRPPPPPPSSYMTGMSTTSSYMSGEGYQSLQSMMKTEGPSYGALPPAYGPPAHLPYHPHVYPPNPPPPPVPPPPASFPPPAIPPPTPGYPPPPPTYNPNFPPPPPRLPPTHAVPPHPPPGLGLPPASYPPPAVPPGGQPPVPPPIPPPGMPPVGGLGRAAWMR
CDK9 CCNK (human), sequence (P50750 whole entry, looked up): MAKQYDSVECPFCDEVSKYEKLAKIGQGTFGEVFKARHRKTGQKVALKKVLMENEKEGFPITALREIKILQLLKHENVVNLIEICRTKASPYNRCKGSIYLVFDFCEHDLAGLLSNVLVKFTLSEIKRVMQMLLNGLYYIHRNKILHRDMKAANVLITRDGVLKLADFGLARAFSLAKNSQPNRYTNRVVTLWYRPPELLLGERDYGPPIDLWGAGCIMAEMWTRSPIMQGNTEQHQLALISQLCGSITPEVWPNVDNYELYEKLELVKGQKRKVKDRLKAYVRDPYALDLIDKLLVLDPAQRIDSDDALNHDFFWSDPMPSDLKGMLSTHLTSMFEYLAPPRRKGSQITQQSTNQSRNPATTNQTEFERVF

CDK1 CCNB1 (human) = CDK1 CCNB1 (human) (UniProt P06493+P14635)
STK39 (human) = STK39 (human) (UniProt Q9UEW8)
CDK4 CCND1 (human) = CDK4 CCND1 (human) (UniProt P24385+P11802)
CDK4 CCND1 (human), sequence (P11802 whole entry, looked up): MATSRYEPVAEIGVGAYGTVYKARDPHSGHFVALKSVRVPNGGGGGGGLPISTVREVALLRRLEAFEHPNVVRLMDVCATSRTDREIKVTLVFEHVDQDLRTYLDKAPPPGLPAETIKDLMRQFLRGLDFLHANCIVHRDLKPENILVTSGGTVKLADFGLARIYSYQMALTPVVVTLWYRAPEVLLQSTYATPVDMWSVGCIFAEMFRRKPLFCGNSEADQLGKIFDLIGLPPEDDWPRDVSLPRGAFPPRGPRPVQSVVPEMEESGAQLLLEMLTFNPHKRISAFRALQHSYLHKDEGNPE
CDK4 CCND1 (human), sequence (P24385 whole entry, looked up): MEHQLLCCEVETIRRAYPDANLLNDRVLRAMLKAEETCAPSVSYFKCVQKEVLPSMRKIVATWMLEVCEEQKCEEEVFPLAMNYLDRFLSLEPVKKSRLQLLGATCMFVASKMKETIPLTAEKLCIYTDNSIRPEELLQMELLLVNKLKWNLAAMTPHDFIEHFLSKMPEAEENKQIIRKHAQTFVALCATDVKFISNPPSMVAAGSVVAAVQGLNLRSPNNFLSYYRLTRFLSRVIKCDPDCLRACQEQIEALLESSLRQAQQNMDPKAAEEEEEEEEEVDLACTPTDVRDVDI

SRPK2 (human) = SRPK2 (human) (UniProt P78362)
EPHA8 (human) = EPHA8 (human) (UniProt P29322)
AKT1 (human) = AKT1 (human) (UniProt P31749)
STK4 (human) = STK4 (human) (UniProt Q13043)
PTK2B (human) = PTK2B (human) (UniProt Q14289)
STK11 (human) = STK11 (human) (UniProt Q15831)
STK11 (human), sequence (Q15831 whole entry, looked up): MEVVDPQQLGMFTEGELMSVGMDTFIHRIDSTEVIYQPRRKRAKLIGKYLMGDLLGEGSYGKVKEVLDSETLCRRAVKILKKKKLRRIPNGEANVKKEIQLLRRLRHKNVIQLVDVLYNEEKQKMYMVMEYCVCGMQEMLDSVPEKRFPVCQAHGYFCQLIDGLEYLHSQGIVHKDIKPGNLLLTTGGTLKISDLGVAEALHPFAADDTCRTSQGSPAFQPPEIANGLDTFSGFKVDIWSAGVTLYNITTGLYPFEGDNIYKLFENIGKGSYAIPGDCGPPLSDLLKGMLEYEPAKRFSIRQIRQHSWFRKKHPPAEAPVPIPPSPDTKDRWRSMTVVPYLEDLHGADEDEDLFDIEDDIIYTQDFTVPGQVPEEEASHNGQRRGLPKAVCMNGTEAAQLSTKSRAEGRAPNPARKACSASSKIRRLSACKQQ

RPS6KA3 KD1 KD2 (human) = RPS6KA3 KD1 KD2 (human) (UniProt P51812)
RPS6KA3 KD1 KD2 (human), sequence (P51812 whole entry, looked up): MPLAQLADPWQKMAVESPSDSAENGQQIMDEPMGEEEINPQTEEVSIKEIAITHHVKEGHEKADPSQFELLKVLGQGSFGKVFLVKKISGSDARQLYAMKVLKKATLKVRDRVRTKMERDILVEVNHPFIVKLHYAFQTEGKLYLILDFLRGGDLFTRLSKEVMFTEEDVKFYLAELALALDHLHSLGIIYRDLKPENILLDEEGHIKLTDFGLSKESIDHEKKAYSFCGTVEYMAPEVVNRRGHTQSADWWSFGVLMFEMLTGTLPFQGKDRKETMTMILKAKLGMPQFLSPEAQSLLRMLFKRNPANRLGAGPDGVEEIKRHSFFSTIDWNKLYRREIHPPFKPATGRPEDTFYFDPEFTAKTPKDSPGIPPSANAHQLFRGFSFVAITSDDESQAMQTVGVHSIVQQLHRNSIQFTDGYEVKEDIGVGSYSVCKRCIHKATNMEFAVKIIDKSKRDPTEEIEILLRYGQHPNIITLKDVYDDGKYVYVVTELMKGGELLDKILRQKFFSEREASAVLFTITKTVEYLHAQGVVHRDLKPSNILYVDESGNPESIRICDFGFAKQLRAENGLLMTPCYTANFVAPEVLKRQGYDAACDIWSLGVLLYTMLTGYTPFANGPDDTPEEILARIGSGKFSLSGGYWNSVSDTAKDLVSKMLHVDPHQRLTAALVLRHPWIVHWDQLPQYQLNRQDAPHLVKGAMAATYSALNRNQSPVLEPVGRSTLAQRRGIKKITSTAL

CDK2 CCNA2 (human) = CDK2 CCNA2 (human) (UniProt P24941+P20248)
FES (human) = FES (human) (UniProt P07332)
MLTK (human) = MLTK (human) (UniProt Q9NYL2)
NTRK3 (human) = NTRK3 (human) (UniProt Q16288)
NTRK3 (human), sequence (Q16288 whole entry, looked up): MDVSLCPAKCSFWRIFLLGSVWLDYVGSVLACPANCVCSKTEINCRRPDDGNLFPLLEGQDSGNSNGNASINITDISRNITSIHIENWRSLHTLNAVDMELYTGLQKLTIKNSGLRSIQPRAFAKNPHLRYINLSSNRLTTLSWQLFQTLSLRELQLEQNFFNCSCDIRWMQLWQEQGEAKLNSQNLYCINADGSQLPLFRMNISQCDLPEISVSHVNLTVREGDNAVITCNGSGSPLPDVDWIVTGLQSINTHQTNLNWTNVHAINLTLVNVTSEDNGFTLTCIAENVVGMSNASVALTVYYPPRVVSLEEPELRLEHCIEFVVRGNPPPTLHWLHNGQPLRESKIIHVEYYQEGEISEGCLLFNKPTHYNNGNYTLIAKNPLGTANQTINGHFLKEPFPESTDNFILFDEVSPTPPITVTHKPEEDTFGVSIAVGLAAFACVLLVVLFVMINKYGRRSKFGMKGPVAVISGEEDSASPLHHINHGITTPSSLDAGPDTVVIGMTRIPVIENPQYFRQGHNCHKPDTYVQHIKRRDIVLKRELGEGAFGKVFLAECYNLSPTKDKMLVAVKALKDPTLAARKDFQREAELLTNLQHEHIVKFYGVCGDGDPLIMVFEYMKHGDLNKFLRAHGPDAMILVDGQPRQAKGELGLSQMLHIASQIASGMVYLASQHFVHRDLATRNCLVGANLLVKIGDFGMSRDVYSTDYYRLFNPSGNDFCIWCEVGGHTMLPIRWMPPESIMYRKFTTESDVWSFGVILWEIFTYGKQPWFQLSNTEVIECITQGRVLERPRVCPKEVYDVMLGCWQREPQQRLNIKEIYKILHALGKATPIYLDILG

EPHA2 (human), sequence (P29317 whole entry, looked up): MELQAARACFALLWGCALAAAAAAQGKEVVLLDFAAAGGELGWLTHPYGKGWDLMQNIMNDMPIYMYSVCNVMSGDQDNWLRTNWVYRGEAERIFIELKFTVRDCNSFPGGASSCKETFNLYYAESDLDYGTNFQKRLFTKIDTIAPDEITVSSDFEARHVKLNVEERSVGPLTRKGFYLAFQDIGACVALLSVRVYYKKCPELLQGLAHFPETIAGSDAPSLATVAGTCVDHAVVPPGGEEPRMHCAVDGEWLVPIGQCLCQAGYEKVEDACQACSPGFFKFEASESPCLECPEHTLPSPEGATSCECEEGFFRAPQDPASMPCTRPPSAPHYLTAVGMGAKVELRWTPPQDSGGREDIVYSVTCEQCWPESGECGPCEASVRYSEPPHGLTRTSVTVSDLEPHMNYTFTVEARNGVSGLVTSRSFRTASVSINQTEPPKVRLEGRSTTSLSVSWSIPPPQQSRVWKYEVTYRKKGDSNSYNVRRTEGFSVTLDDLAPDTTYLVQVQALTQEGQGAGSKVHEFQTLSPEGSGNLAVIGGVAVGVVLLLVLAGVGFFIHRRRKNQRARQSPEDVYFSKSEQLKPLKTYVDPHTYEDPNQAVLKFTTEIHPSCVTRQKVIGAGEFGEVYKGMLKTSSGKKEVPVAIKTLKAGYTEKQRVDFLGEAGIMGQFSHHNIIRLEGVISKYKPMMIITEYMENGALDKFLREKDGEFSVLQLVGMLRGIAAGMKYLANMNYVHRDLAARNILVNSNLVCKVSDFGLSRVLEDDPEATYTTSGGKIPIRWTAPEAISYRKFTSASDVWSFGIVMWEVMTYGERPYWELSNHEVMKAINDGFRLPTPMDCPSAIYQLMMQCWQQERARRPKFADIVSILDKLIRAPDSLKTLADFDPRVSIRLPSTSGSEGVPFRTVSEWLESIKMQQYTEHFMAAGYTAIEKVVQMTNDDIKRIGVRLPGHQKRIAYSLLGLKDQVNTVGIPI

Row | Compound | residual activity (EPHA2 (human)) | residual activity (LRRK2 (human)) | residual activity (HCK (human)) | residual activity (RPS6KA6 KD1 KD2 (human)) | residual activity (LYN (human)) | residual activity (PRKG2 (human)) | residual activity (ADRBK1 (human)) | residual activity (PRKCG (human)) | residual activity (PIM1 (human)) | residual activity (MAP4K2 (human)) | residual activity (BTK (human)) | residual activity (SRPK1 (human)) | residual activity (SRPK3 (human)) | residual activity (IRAK4 (human)) | residual activity (MST4 (human)) | residual activity (SRMS (human)) | residual activity (CSNK1E (human)) | residual activity (GSG2 (human)) | residual activity (PAK4 (human)) | residual activity (EPHA4 (human)) | also measured
1 | CCN(CC)CCNC(=O)c1c(C)[nH]c(/C=C2\C(=O)Nc3ccc(F)cc32)c1C | 83.6% | 3.34% | 40% | 17.5% | 23% and 34.6% | 96.1% | 94.7% | 83.8% | 94.4% | 34.4% | 50.2% | 97% | 102% | 27.4% | 110% | 99.6% | 46.9% | 53.2% | 80.9% | 84.5% | residual activity (FRK (human)): 84.4%; residual activity (ULK3 (human)): 57.4%; residual activity (CDK6 CCND1 (human)): 50.5%; residual activity (CAMKK2 (human)): 65.3%; residual activity (PRKCI (human)): 103%; residual activity (TXK (human)): 92.6%; residual activity (CDK9 CCNK (human)): 80.2%; residual activity (CDK1 CCNB1 (human)): 103%; residual activity (STK39 (human)): 87.4%; residual activity (CDK4 CCND1 (human)): 81%; residual activity (SRPK2 (human)): 95%; residual activity (EPHA8 (human)): 92.1%; residual activity (AKT1 (human)): 105%; residual activity (STK4 (human)): 10.7%; residual activity (PTK2B (human)): 38.3%; residual activity (STK11 (human)): 97.2%; residual activity (RPS6KA3 KD1 KD2 (human)): 35.5%
2 | CNC(=O)c1cc(Oc2ccc(NC(=O)Nc3ccc(Cl)c(C(F)(F)F)c3)cc2)ccn1 | 83.8% | 106% | 90.3% | 97.3% | 88.1% and 98.8% | 90.9% | 112% | 94.7% | 97.1% | 108% | 102% | 98.6% | 88.4% | 99.6% | 101% | 107% | 95.9% | 99.3% | 91.8% | 92.5% | residual activity (CDK2 CCNA2 (human)): 99.7%; residual activity (ULK3 (human)): 103%; residual activity (CDK6 CCND1 (human)): 91.8%; residual activity (CAMKK2 (human)): 103%; residual activity (PRKCI (human)): 89.9%; residual activity (TXK (human)): 106%; residual activity (CDK9 CCNK (human)): 101%; residual activity (CDK1 CCNB1 (human)): 98.5%; residual activity (STK39 (human)): 95.7%; residual activity (CDK4 CCND1 (human)): 96.2%; residual activity (FES (human)): 104%; residual activity (SRPK2 (human)): 102%; residual activity (EPHA8 (human)): 94.5%; residual activity (AKT1 (human)): 96.2%; residual activity (STK4 (human)): 101%; residual activity (PTK2B (human)): 101%; residual activity (MLTK (human)): 16.7%; residual activity (STK11 (human)): 104%; residual activity (RPS6KA3 KD1 KD2 (human)): 100%
3 | Cc1ccc(S(=O)(=O)/C=C/C#N)cc1 | 105% | 115% | 100% | 95.4% | 101% and 108% | 102% | 102% | 92.9% | 101% | 130% | 94.4% | 99.7% | 104% | 161% | 90.7% | 98.8% | 107% | 101% | 91.9% | 86.1% | residual activity (FRK (human)): 91.6%; residual activity (CDK2 CCNA2 (human)): 98%; residual activity (CDK6 CCND1 (human)): 91.4%; residual activity (CAMKK2 (human)): 102%; residual activity (PRKCI (human)): 90.3%; residual activity (TXK (human)): 103%; residual activity (CDK9 CCNK (human)): 112%; residual activity (CDK1 CCNB1 (human)): 92.3%; residual activity (STK39 (human)): 83.7%; residual activity (CDK4 CCND1 (human)): 103%; residual activity (FES (human)): 100%; residual activity (SRPK2 (human)): 108%; residual activity (EPHA8 (human)): 96.8%; residual activity (AKT1 (human)): 112%; residual activity (STK4 (human)): 94.7%; residual activity (NTRK3 (human)): 95.5%; residual activity (PTK2B (human)): 92.8%; residual activity (MLTK (human)): 94.7%; residual activity (STK11 (human)): 91.1%; residual activity (RPS6KA3 KD1 KD2 (human)): 95.9%
4 | CC#CC(=O)Nc1cc2c(Nc3ccc(F)c(Cl)c3)ncnc2cn1 | 103% | 92.3% | 92.2% | 95.3% | 88.3% and 96.1% | 105% | 98.3% | 97.2% | 98.6% | 114% | 2.88% | 94.8% | 101% | 102% | 103% | 96.1% | 93.6% | 101% | 107% | 94.6% | residual activity (FRK (human)): 102%; residual activity (CDK2 CCNA2 (human)): 97.8%; residual activity (CDK6 CCND1 (human)): 99%; residual activity (CAMKK2 (human)): 103%; residual activity (PRKCI (human)): 96.6%; residual activity (TXK (human)): 1.66%; residual activity (CDK9 CCNK (human)): 98.4%; residual activity (CDK1 CCNB1 (human)): 99.5%; residual activity (STK39 (human)): 91.3%; residual activity (CDK4 CCND1 (human)): 98.6%; residual activity (FES (human)): 99.4%; residual activity (SRPK2 (human)): 69.2%; residual activity (EPHA8 (human)): 100%; residual activity (AKT1 (human)): 98.1%; residual activity (STK4 (human)): 98.7%; residual activity (NTRK3 (human)): 95.3%; residual activity (PTK2B (human)): 94.1%; residual activity (MLTK (human)): 85.8%; residual activity (STK11 (human)): 99.6%; residual activity (RPS6KA3 KD1 KD2 (human)): 97.5%
5 | Nc1cccc(-c2cc3c(Oc4cccc(O)c4)ncnc3[nH]2)c1 | 48.2% | 93.4% | 6.65% | 95.4% | 11.1% and 21.4% | 108% | 108% | 88.1% | 85.9% | 55.5% | 33.6% | 107% | 101% | 88.2% | 83.8% | 94.4% | 92.9% | 93.3% | 99.8% | 48.3% | residual activity (FRK (human)): 6.95%; residual activity (CDK2 CCNA2 (human)): 88.5%; residual activity (CDK6 CCND1 (human)): 82.2%; residual activity (CAMKK2 (human)): 95.9%; residual activity (PRKCI (human)): 84.6%; residual activity (TXK (human)): 24.5%; residual activity (CDK9 CCNK (human)): 58.4%; residual activity (CDK1 CCNB1 (human)): 98.9%; residual activity (STK39 (human)): 119%; residual activity (CDK4 CCND1 (human)): 88.7%; residual activity (FES (human)): 73.8%; residual activity (SRPK2 (human)): 99.1%; residual activity (EPHA8 (human)): 57.5%; residual activity (AKT1 (human)): 92.5%; residual activity (STK4 (human)): 94.4%; residual activity (NTRK3 (human)): 63.3%; residual activity (PTK2B (human)): 65.6%; residual activity (MLTK (human)): 13.9%; residual activity (STK11 (human)): 12.4%; residual activity (RPS6KA3 KD1 KD2 (human)): 96.9%
